Among the data in ChEMBL document CHEMBL4831479, “Discovery of Novel Thiophene-arylamide Derivatives as DprE1 Inhibitors with Potent Antimycobacterial Activities” (J Med Chem, 2021) are MIC values, retold here.

Test [1] has as its system Mycobacterium tuberculosis. Kind of test: Non-covalent inhibition of DprE1 in PBTZ169-resistant Mycobacterium tuberculosis measured after 7 days by microplate Alamar blue assay. The note with it: time 7.0 day.
The subject of test [2] is Mycobacterium tuberculosis. Kind of test: Non-covalent inhibition of DprE1 in bedaquiline-resistant Mycobacterium tuberculosis measured after 7 days by microplate Alamar blue assay. The note with it: time 7.0 day. Background: Resazurin is reduced to fluorescent resorufin, in cell work by metabolically active cells.

Structures are written as SMILES. Values after ≈ are worked out from the molar mass of the structure shown.

Compound `COC(=O)NC(=O)c1ccsc1NC(=O)c1ccc(C(=O)N2CCCCC2)cc1` had an MIC in test [1] of 0.48 µg/mL (≈ 1.16 µM). As to `CCOC(=O)NC(=O)c1ccsc1NC(=O)c1ccc(C(=O)N2CCCCC2)c(F)c1`, the figures for the MIC in test [2] and in test [1] were 0.054 µg/mL (≈ 0.121 µM) and 0.062 µg/mL (≈ 0.139 µM), respectively. As for `CCOC(=O)NC(=O)c1ccsc1NC(=O)c1ccc(C(=O)N2CCCCC2)cc1`, the MIC in test [1] came to 0.14 µg/mL (≈ 0.326 µM).
